Data reported in patent US8053197B2, “Methods for detecting and treating autoimmune disorders” (Oregon Health & Science University, priority 2004, dated 2011).

Columns and labels:
PBMC = test: ELISPOT assay of IL-10 and IFN-γ secreting T cells responding to TCR CDR2 peptides; assay type: cell-based, human; details: for IFN-γ response: recognition by MS patients: induced IFN-γ-secreting T cells in all 5 HC; for frequency of IL-10-secreting T cells / frequency of IFN-γ secreting cells: 5 HC donors, single peptide; for response of MS patients compared with HC: expanded panel, 3 MS patients vs 5 HC
Experimental: FIGS. 13A-13B PBMC from healthy controls (HC) and MS patients respond differentially to TCR CDR2 peptides. A. Production of IL-10 and IFN-gamma was measured in the PBMC response to TCR BV CDR2 peptides (left) and TCR AV CDR2 peptides (right) representing the entire TCR BV and AV gene repertoire as measured by ELISPOT assay. PBMC responses to ConA were equivalent in HC and MS patients (not shown). B. Summary of cytokine-producing cells in which IL-10 or IFN-gamma production was summed for responses to all BV+AV CDR2 peptides. Total cytokine production represents the summation of IL-10-+IFN-gamma-secreting cells for all peptides. *P<0.05 comparing the frequency in HC vs. MS patients. The HC group consisted of five individuals, three females and two males. The MS patient group consisted of three individuals, two females with relapsing, remitting MS, both symptomatic, and one person with secondary, progressive MS.
To determine antigen-specific T cell frequency by ELISPOT, blood mononuclear cells were separated by Ficoll density gradient centrifugation, resuspended in 2% human AB serum, and aliquotted at 0.5 and 0.25 million cells in triplicate wells of nitrocellulose-coated microliter plates (Becton Dickinson, Franklin Lakes, N.J.) pretreated with anti-IFN-γ (Mabtech, Sweden) or anti-IL-10 (PharMingen, San Diego, Calif.) mAb. Peptides, ConA, and medium were added and the plates incubated at 37C for 24 hours (IFN-γ) or 48 hours (IL-10). Biotin-labeled secondary mAb for each cytokine was added, followed by streptavidin-alkaline phosphatase (Dako Corp., Carpinteria, Calif.) and substrate (BCIP/NBT phosphatase substrate, KPL Laboratories, Gaithersburg, Md.) to develop optimal blue staining. Cytokine spots were quantified using an AID Immunospot Analyzer (AID, Cleveland, Ohio) equipped with a high resolution lens camera and analytical software designed for use with the AID system. Mean spots/well were calculated for each Ag, and net counts established after subtraction of background (no Ag). The frequency of Ag-specific spot-forming cells per million PBMC was determined from the average net response observed at two different cell concentrations. The mean net frequency +SEM was calculated for MS patients and HC, and differences compared by Student's t test for significance (p<0.05).
PBMC were removed from plates by washing with 3× with PBS and 3× with PBS/0.05% Tween, pH 7.6. To each well was added 100 μl of either anti-IFN-γ (1 μg/ml, Mabtech, Sweden) or anti-IL-10 (2 μg/ml, PharMingen, San Diego, Calif.) and incubated for 4 hours at room temperature in the dark. Plates were washed 4× with PBS/Tween, then 100 μl per well of alkaline-phosphatase-conjugated streptavidin (DAKO) (1:1000 of stock) was added and plates were incubated for 45 minutes at room temperature. Plates were washed 4× with PBS/Tween and 6× with PBS, 1 minute each. 100 μl of BCIP/NBT substrate (KPL Laboratories, Gaithersburg, Md.) was added and the color reaction was allowed to develop for 3-7 minutes. Plates were rinsed 3× with distilled water and dried overnight at room temperature.
Plates were scanned with an Immunospot Reader (Cellular Technology Limited, Cleveland, Ohio) with optimized lighting conditions and analyzed according to the predetermined parameters of sensitivity, spot size, and background. The background counts were subtracted, and data was then normalized to cytokine secreting cells per million PBMC plated.
To evaluate native recognition of TCR determinants, the frequency of IL-10 and IFN-γ secreting T cells from the blood of 5 HC (3 females, 2 males, average age 28) was assessed using the ELISPOT assay, to detect responses to a comprehensive panel of 113 unique CDR2 peptides representing nearly all of the AV and BV repertoires (Table 1). Only 3 peptides, AV1 S4A1N1T, BV1551 and BV20S1A1N1, could not be tested due to solubility and toxicity problems. […]

[1] = tested on: CD4+CD25+ versus CD4+CD25− populations; test: Proliferation of CD4+CD25+ versus CD4+CD25− populations stimulated with TCR peptide pool or control antigens; assay type: cell-based, human; details: HC donors with measurable Treg activity
Excerpt: To establish a connection between TCR-reactive T cells and Treg cells, whether TCR reactivity could be found in the CD4+CD25+ Treg cell subpopulation isolated directly from HC was first determined. Thus, CD4+CD25+ versus CD4+CD25− populations were isolated and stimulated with a pool of eight TCR CDR2 peptides that optimally distinguished differences in IL-10 responses between HC and MS patients (designated as Pool #1), or with control antigens, including Copolymer 1, a pool of neuropeptide antigens, and the recall antigen, TT. […] In addition, five treatment-naïve MS patients had no response to Pool #1 peptides in either the CD4+CD25+ or CD4+CD25− fractions and also had no detectable Treg activity. Six MS patients undergoing standard treatment also lacked response to Pool #1 peptides and Treg activity.

## ALGQGPQFIFQTYEEEERQRG (TCR CDR2 peptide.) [BV5S2]
PBMC
  frequencies of IL-10-secreting PBMC in MS patients versus HC: significantly lower

## DLGHGLRLIHYSYGVKDTNKG (TCR CDR2 peptide.) [BV12S2A2T]
PBMC
  IFN-γ response: recognition by MS patients: poorly recognized

## DLGHGLRLIHYSYGVQDTNKG (TCR CDR2 peptide.) [BV12S2A1T]
PBMC
  IFN-γ response: recognition by MS patients: poorly recognized

## Glatiramer acetate [Cop-1]
[1]
  proliferation of CD4+CD25+ compared with CD4+CD25− population: no proliferative response above background

## KHGEAPVFLMILLKGGEQKGH (TCR CDR2 peptide.) [AV29S1A2T]
PBMC
  frequency of IL-10-secreting T cells: > 1000 cells/million PBMC
  response of MS patients compared with HC: as well or better than HC

## KLEEELKFLVYFQNEELIQKA (TCR CDR2 peptide.) [BV10S1P]
PBMC
  frequency of IFN-γ secreting cells: minimal frequencies
  frequency of IL-10-secreting T cells: > 2000 cells/million PBMC

## NQNKEFMLLISFQNEQVLQET (TCR CDR2 peptide.) [BV19S1P]
PBMC
  frequency of IFN-γ secreting cells: 900 cells/million PBMC

## SSGEMIFLIYQGSYDQQNATE (TCR CDR2 peptide.) [ADV6S1A1N1]
PBMC
  IFN-γ response: recognition by MS patients: poorly recognized

## TT: the recall antigen, TT
[1]
  proliferation of CD4+CD25+ compared with CD4+CD25− population: present mainly in the CD4+CD25− fraction

## YPNQGLQLLLKYTSAATLVKG (TCR CDR2 peptide.) [AV1S2A1N1T]
PBMC
  response of MS patients compared with HC: as well or better than HC
